Source: patent US11771738B2 (Zoetis Services LLC, priority 2018, dated 2023)
Read-outs that look alike come from different tables or passages of the source.

How the values were obtained:
Assay type in all cases: cell-based
[1] = tested on: D. immitis L4 larvae; test: Dirofilaria immitis, L4 Stage (DiL4) In Vitro Assay; details: for minimal effective concentration: Dirofilaria immitis, 72 h, read-out: DiL4 MED, Minimum Effective Dose, D. immitis L4 larvae motility, in vitro; for DiMf/DiL4: larval stage selectivity, ratio of DiMf MED to DiL4 MED
[2] = tested on: third stage larvae of Haemonchus contortus; test: Haemonchus contortus, Larvae Stage 3 (HcL3) In Vitro Assay; details: Haemonchus contortus, 96 h
[3] = tested on: microfilariae of Dirofilaria immitis; test: Dirofilaria immitis, Microfilaria (DiMf) In Vitro Assay; details: Dirofilaria immitis, 72 h, read-out: DiMf MED, Minimum Effective Dose, D. immitis microfilariae motility, in vitro
[4] = read-out: HcL3 MED, Haemonchus contortus third stage larvae in vitro, class mark appended to the Ex # in Table 3
[5] = read-out: HcL3 MED, Minimum Effective Dose, H. contortus third stage larvae, approximately 96 hours
[6] = read-out: HcL3 MED, approximately 96 hours incubation, multiple-resistant field isolate

Cc1noc(C)c1Cc1ccc(C[C@H]2OC(=O)[C@H](CC(C)C)N(C)C(=O)[C@@H](C)OC(=O)[C@H](CC(C)C)N(C)C(=O)[C@@H](Cc3ccc(Cc4c(C)noc4C)cc3)OC(=O)[C@H](CC(C)C)N(C)C(=O)[C@@H](C)OC(=O)[C@H](CC(C)C)N(C)C2=O)cc1 [Example 3-21, (3S,6R,9S,12R,15S,18R,21S,24R)-6,18-bis(4-((3,5-dimethylisoxazol-4-yl)methyl)benzyl)-3,9,15,21-tetraisobutyl-4,10,12,16,22,24-hexamethyl-1,7,13,19-tetraoxa-4,10,16,22-tetraazacyclotetracosan-2,5,8,11,14,17,20,23-octaone]
minimal effective concentration [1]: < 3e-05 µM
DiMf/DiL4 [1]: >3.3
minimal effective concentration [2, 4]: < 1 µM
minimal effective concentration [2, 5]: 0.3 µM
minimal effective concentration [2, 6]: ≤ 1 µM
minimal effective concentration [3]: 0.0001 µM

CC(C)C[C@H]1C(=O)O[C@H](Cc2ccc(Cc3ccnn3C)cc2)C(=O)N(C)[C@@H](CC(C)C)C(=O)O[C@H](C)C(=O)N(C)[C@@H](CC(C)C)C(=O)O[C@H](Cc2ccc(Cc3ccnn3C)cc2)C(=O)N(C)[C@@H](CC(C)C)C(=O)O[C@H](C)C(=O)N1C [Example 3-24, (3S,6R,9S,12R,15S,18R,21S,24R)-3,9,15,21-tetraisobutyl-4,6,10,16,18,22-hexamethyl-12,24-bis(4-((1-methyl-1H-pyrazol-5-yl)methyl)benzyl)-1,7,13,19-tetraoxa-4,10,16,22-tetraazacyclotetracosan-2,5,8,11,14,17,20,23-octaone]
minimal effective concentration [1]: 3e-05 µM
DiMf/DiL4 [1]: 3.3
minimal effective concentration [2, 4]: < 1 µM
minimal effective concentration [2, 5]: 1 µM
minimal effective concentration [2, 6]: ≤ 1 µM
minimal effective concentration [3]: 0.0001 µM

COc1ncccc1Cc1ccc(C[C@H]2OC(=O)[C@H](CC(C)C)N(C)C(=O)[C@@H](C)OC(=O)[C@H](CC(C)C)N(C)C(=O)[C@@H](Cc3ccc(Cc4cccnc4OC)cc3)OC(=O)[C@H](CC(C)C)N(C)C(=O)[C@@H](C)OC(=O)[C@H](CC(C)C)N(C)C2=O)cc1 [Example 3-31, (3S,6R,9S,12R,15S,18R,21S,24R)-3,9,15,21-tetraisobutyl-6,18-bis(4-((2-methoxypyridin-3-yl)methyl)benzyl)-4,10,12,16,22,24-hexamethyl-1,7,13,19-tetraoxa-4,10,16,22-tetraazacyclotetracosan-2,5,8,11,14,17,20,23-octaone]
minimal effective concentration [1]: 0.0002 µM
DiMf/DiL4 [1]: 25
minimal effective concentration [2, 4]: 1 to 3.3 µM
minimal effective concentration [2, 5]: 2.4 µM
minimal effective concentration [3]: 0.005 µM

Cc1ccsc1Cc1ccc(C[C@H]2OC(=O)[C@H](CC(C)C)N(C)C(=O)[C@@H](C)OC(=O)[C@H](CC(C)C)N(C)C(=O)[C@@H](Cc3ccc(Cc4sccc4C)cc3)OC(=O)[C@H](CC(C)C)N(C)C(=O)[C@@H](C)OC(=O)[C@H](CC(C)C)N(C)C2=O)cc1 [Example 3-44, (3S,6R,9S,12R,15S,18R,21S,24R)-3,9,15,21-tetraisobutyl-4,6,10,16,18,22-hexamethyl-12,24-bis(4-((3-methylthiophen-2-yl)methyl)benzyl)-1,7,13,19-tetraoxa-4,10,16,22-tetraazacyclotetracosan-2,5,8,11,14,17,20,23-octaone]
minimal effective concentration [1]: 0.0001 µM
DiMf/DiL4 [1]: 1000
minimal effective concentration [2, 4]: 1 to 3.3 µM
minimal effective concentration [2, 5]: 1.8 µM
minimal effective concentration [3]: 0.1 µM

Cc1cc(Cc2ccc(C[C@H]3OC(=O)[C@H](CC(C)C)N(C)C(=O)[C@@H](C)OC(=O)[C@H](CC(C)C)N(C)C(=O)[C@@H](Cc4ccc(Cc5cc(C)nn5C)cc4)OC(=O)[C@H](CC(C)C)N(C)C(=O)[C@@H](C)OC(=O)[C@H](CC(C)C)N(C)C3=O)cc2)n(C)n1 [Example 3-49, (3S,6R,9S,12R,15S,18R,21S,24R)-6,18-bis(4-((1,3-dimethyl-1H-pyrazol-5-yl)methyl)benzyl)-3,9,15,21-tetraisobutyl-4,10,12,16,22,24-hexamethyl-1,7,13,19-tetraoxa-4,10,16,22-tetraazacyclotetracosan-2,5,8,11,14,17,20,23-octaone]
minimal effective concentration [1]: 0.001 µM
DiMf/DiL4 [1]: 5
minimal effective concentration [2, 4]: 1 to 3.3 µM
minimal effective concentration [2, 5]: 3.3 µM
minimal effective concentration [3]: 0.005 µM

CC(C)C[C@H]1C(=O)O[C@H](Cc2ccc(Cc3occc3C#N)cc2)C(=O)N(C)[C@@H](CC(C)C)C(=O)O[C@H](C)C(=O)N(C)[C@@H](CC(C)C)C(=O)O[C@H](Cc2ccc(Cc3occc3C#N)cc2)C(=O)N(C)[C@@H](CC(C)C)C(=O)O[C@H](C)C(=O)N1C [Example 3-50, 2,2′-(((((2R,5S,8R,11 S,14R,17S,20R,23S)-5,11,17,23-tetraisobutyl-4,8,10,16,20,22-hexamethyl-3,6,9,12,15,18,21,24-octaoxo-1,7,13,19-tetraoxa-4,10,16,22-tetraazacyclotetracosane-2,14-diyl)bis(methylene))bis(4,1-phenylene))bis(methylene))bis(furan-3-carbonitrile)]
minimal effective concentration [1]: 0.0001 µM
DiMf/DiL4 [1]: 10
minimal effective concentration [2, 4]: < 1 µM
minimal effective concentration [2, 5]: 0.3 µM
minimal effective concentration [2, 6]: ≤ 1 µM
minimal effective concentration [3]: 0.001 µM

CC(C)C[C@H]1C(=O)O[C@H](Cc2ccc(Cc3ccsc3)cc2)C(=O)N(C)[C@@H](CC(C)C)C(=O)O[C@H](C)C(=O)N(C)[C@@H](CC(C)C)C(=O)O[C@H](Cc2ccc(Cc3ccsc3)cc2)C(=O)N(C)[C@@H](CC(C)C)C(=O)O[C@H](C)C(=O)N1C [Example 3-56, (3S,6R,9S,12R,15S,18R,21S,24R)-3,9,15,21-tetraisobutyl-4,6,10,16,18,22-hexamethyl-12,24-bis(4-(thiophen-3-ylmethyl)benzyl)-1,7,13,19-tetraoxa-4,10,16,22-tetraazacyclotetracosan-2,5,8,11,14,17,20,23-octaone]
minimal effective concentration [1]: 0.0005 µM
DiMf/DiL4 [1]: 200
minimal effective concentration [2, 4]: < 1 µM
minimal effective concentration [2, 5]: 0.5 µM
minimal effective concentration [2, 6]: ≤ 1 µM
minimal effective concentration [3]: 0.1 µM

CC(C)C[C@H]1C(=O)O[C@H](Cc2ccc(Cc3cocn3)cc2)C(=O)N(C)[C@@H](CC(C)C)C(=O)O[C@H](C)C(=O)N(C)[C@@H](CC(C)C)C(=O)O[C@H](Cc2ccc(Cc3cocn3)cc2)C(=O)N(C)[C@@H](CC(C)C)C(=O)O[C@H](C)C(=O)N1C [Example 3-57, (3S,6R,9S,12R,15S,18R,21S,24R)-3,9,15,21-tetraisobutyl-4,6,10,16,18,22-hexamethyl-12,24-bis(4-(oxazol-4-ylmethyl)benzyl)-1,7,13,19-tetraoxa-4,10,16,22-tetraazacyclotetracosan-2,5,8,11,14,17,20,23-octaone]
minimal effective concentration [1]: 0.0003 µM
DiMf/DiL4 [1]: 1
minimal effective concentration [2, 4]: < 1 µM
minimal effective concentration [2, 5]: 1 µM
minimal effective concentration [2, 6]: ≤ 1 µM
minimal effective concentration [3]: 0.0003 µM

CC(C)C[C@H]1C(=O)O[C@H](Cc2ccc(Cc3coc(C#N)c3)cc2)C(=O)N(C)[C@@H](CC(C)C)C(=O)O[C@H](C)C(=O)N(C)[C@@H](CC(C)C)C(=O)O[C@H](Cc2ccc(Cc3coc(C#N)c3)cc2)C(=O)N(C)[C@@H](CC(C)C)C(=O)O[C@H](C)C(=O)N1C [Example 3-60, 4,4′-(((((2R,5S,8R,11 S,14R,17S,20R,23S)-5,11,17,23-tetraisobutyl-4,8,10,16,20,22-hexamethyl-3,6,9,12,15,18,21,24-octaoxo-1,7,13,19-tetraoxa-4,10,16,22-tetraazacyclotetracosane-2,14-diyl)bis(methylene))bis(4,1-phenylene))bis(methylene))bis(furan-2-carbonitrile)]
minimal effective concentration [1]: 0.001 µM
DiMf/DiL4 [1]: 50
minimal effective concentration [2, 5]: > 10 µM
minimal effective concentration [3]: 0.05 µM

COc1cccc(Cc2ccc(C[C@H]3OC(=O)[C@H](CC(C)C)N(C)C(=O)[C@@H](C)OC(=O)[C@H](CC(C)C)N(C)C(=O)[C@@H](Cc4ccc(Cc5cccc(OC)n5)cc4)OC(=O)[C@H](CC(C)C)N(C)C(=O)[C@@H](C)OC(=O)[C@H](CC(C)C)N(C)C3=O)cc2)n1 [Example 3-69, (3S,6R,9S,12R,15S,18R,21S,24R)-3,9,15,21-tetraisobutyl-6,18-bis(4-((6-methoxypyridin-2-yl)methyl)benzyl)-4,10,12,16,22,24-hexamethyl-1,7,13,19-tetraoxa-4,10,16,22-tetraazacyclotetracosan-2,5,8,11,14,17,20,23-octaone]
minimal effective concentration [1]: 0.0007 µM
DiMf/DiL4 [1]: 42.9
minimal effective concentration [2, 4]: < 1 µM
minimal effective concentration [2, 5]: 0.5 µM
minimal effective concentration [2, 6]: ≤ 1 µM
minimal effective concentration [3]: 0.03 µM

CC(C)C[C@H]1C(=O)O[C@H](Cc2ccc(Cc3sccc3Cl)cc2)C(=O)N(C)[C@@H](CC(C)C)C(=O)O[C@H](C)C(=O)N(C)[C@@H](CC(C)C)C(=O)O[C@H](Cc2ccc(Cc3sccc3Cl)cc2)C(=O)N(C)[C@@H](CC(C)C)C(=O)O[C@H](C)C(=O)N1C [Example 3-87, (3S,6R,9S,12R,15S,18R,21S,24R)-6,18-bis(4-((3-chlorothiophen-2-yl)methyl)benzyl)-3,9,15,21-tetraisobutyl-4,10,12,16,22,24-hexamethyl-1,7,13,19-tetraoxa-4,10,16,22-tetraazacyclotetracosan-2,5,8,11,14,17,20,23-octaone]
minimal effective concentration [1]: 0.0003 µM
DiMf/DiL4 [1]: 333
minimal effective concentration [2, 4]: < 1 µM
minimal effective concentration [2, 5]: 0.3 µM
minimal effective concentration [2, 6]: ≤ 1 µM
minimal effective concentration [3]: 0.1 µM
